The values below come from BindingDB's records for doi:10.7270/Q2NP26K8 (n/a, 1992).

Assay in all cases: Inhibition of guinea pig heart Phosphodiesterase 3
For experiment [1], the target named is PDE3 (Cavia porcellus).
Experiment [2] deals with PDE3 (Cavia porcellus). The source holds these as a separate data set.
In experiment [3] the target is PDE3 (Cavia porcellus). The source holds these as a separate data set.

Structures are written as SMILES. pIC50: −log10 of the molar value.

With `COc1ccc(C(=O)N2CCCc3cc(C4=NNC(=O)S[C@@H]4C)ccc32)cc1OC`, the values for the pIC50 against PDE3 (Cavia porcellus) [1], against PDE3 (Cavia porcellus) [2] and against PDE3 (Cavia porcellus) [3] were 7.22, 7.30 and 7.22, respectively.

A word on the pIC50: it is −log10 of the IC50, conventionally taken in molar units. Higher therefore signals a small IC50.
